{"source": "ChEMBL document CHEMBL4819004", "about": "“Discovery of selective CDK9 degraders with enhancing antiproliferative activity through PROTAC conversion” (Eur J Med Chem, 2021)", "key": {"MV4-11 [1]": {"tested_on": "MV4-11", "experiment": "Induction of apoptosis in human MV4-11 cells assessed as early apoptotic cells at 1000 nM after 6 hrs by AnnexinV-FITC/propidium iodide staining based flow cytometry (reference value: 5.36 %)", "type": "functional"}, "MV4-11 [2]": {"tested_on": "MV4-11", "experiment": "Induction of apoptosis in human MV4-11 cells assessed as viable cells at 250 nM after 6 hrs by AnnexinV-FITC/propidium iodide staining based flow cytometry (reference value: 90.1 %)", "type": "functional", "conditions": "read-out: Activity"}, "[3]": {"target": "T1, Protein cereblon/Cyclin-dependent kinase 9 (Homo sapiens, UniProt P50750+Q96SW2)", "experiment": "PROTAC activity at CRBN/CDK9 in human MV4-11 cells assessed as reduction in RNA PolII CTD phosphorylation at Ser2 residue measured after 6 hrs by western blot analysis", "type": "cell-based", "conditions": "dose 31.25-8000 nM"}, "MCF7": {"tested_on": "MCF7", "experiment": "Antiproliferative activity against human MCF7 cells incubated for 72 hrs by MTT assay", "type": "functional, cell-based", "conditions": "MCF7, 72 h"}, "[4]": {"target": "T1, Protein cereblon/Cyclin-dependent kinase 9", "experiment": "PROTAC activity at CRBN/CDK9 in human MV4-11 cells assessed as reduction in RNA PolII CTD phosphorylation at Ser5 residue measured after 6 hrs by western blot analysis", "type": "cell-based", "conditions": "dose 31.25-8000 nM"}, "[5]": {"target": "Protein cereblon/Cyclin-dependent kinase 2 (Homo sapiens) (UniProt P24941+Q96SW2)", "experiment": "PROTAC activity at CRBN/CDK2 in human MV4-11 cells assessed as induction of CDK2 degradation at 31.25 to 500 nM measured after 3 hrs by western blot analysis", "type": "cell-based", "conditions": "dose 31.25-500 nM"}, "[6]": {"target": "T1, Protein cereblon/Cyclin-dependent kinase 9", "experiment": "Protac activity at CRBN/CDK9 in human MV4-11 cells assessed as induction of CDK9 degradation by measuring downregulation of MCL-1 protein expression level at 250 nM by western blot analysis", "type": "cell-based", "conditions": "time 1-12 hrs, TDE = time-dependent effect"}, "[7]": {"target": "T1, Protein cereblon/Cyclin-dependent kinase 9", "experiment": "Protac activity at CRBN/CDK9 in human MV4-11 cells assessed as CDK9 degradation rate at 500 nM incubated for 6 hrs by Western blot assay relative to control", "type": "cell-based"}, "MV4-11 [8]": {"tested_on": "MV4-11", "experiment": "Induction of apoptosis in human MV4-11 cells assessed as viable cells at 500 nM after 6 hrs by AnnexinV-FITC/propidium iodide staining based flow cytometry (reference value: 90.1 %)", "type": "functional", "conditions": "read-out: Activity"}, "MV4-11 [9]": {"tested_on": "MV4-11", "experiment": "Induction of apoptosis in human MV4-11 cells assessed as necrotic cells at 1000 nM after 6 hrs by AnnexinV-FITC/propidium iodide staining based flow cytometry (reference value: 0.16 %)", "type": "functional"}, "MV4-11 [10]": {"tested_on": "MV4-11", "experiment": "Induction of apoptosis in human MV4-11 cells assessed as viable cells at 100 nM after 6 hrs by AnnexinV-FITC/propidium iodide staining based flow cytometry (reference value: 90.1 %)", "type": "functional", "conditions": "read-out: Activity"}, "[11]": {"target": "T1, Protein cereblon/Cyclin-dependent kinase 9", "experiment": "Protac activity at CRBN/CDK9 in human MV4-11 cells assessed as induction of CDK9 degradation at 250 nM pretreated for 2 hrs with proteasome inhibitor, MG132 followed by incubation with compound for 6 hrs by western blot analysis", "type": "cell-based"}, "MV4-11 [12]": {"tested_on": "MV4-11", "experiment": "Induction of apoptosis in human MV4-11 cells assessed as late apoptotic cells at 500 nM after 6 hrs by AnnexinV-FITC/propidium iodide staining based flow cytometry (reference value: 4.29%)", "type": "functional"}, "MV4-11 [13]": {"tested_on": "MV4-11", "experiment": "Induction of apoptosis in human MV4-11 cells assessed as viable cells at 30 nM after 6 hrs by AnnexinV-FITC/propidium iodide staining based flow cytometry (reference value: 90.1 %)", "type": "functional", "conditions": "read-out: Activity"}, "[14]": {"target": "Protein cereblon/Cyclin-dependent kinase 6 (Homo sapiens) (UniProt Q00534+Q96SW2)", "experiment": "PROTAC activity at CRBN/CDK6 in human MV4-11 cells assessed as induction of CDK6 degradation at 31.25 to 500 nM measured after 3 hrs by western blot analysis", "type": "cell-based", "conditions": "dose 31.25-500 nM"}, "MV4-11 [15]": {"tested_on": "MV4-11", "experiment": "Antiproliferative activity against human MV4-11 cells incubated for 72 hrs by MTT assay", "type": "functional, cell-based", "conditions": "MV4-11, 72 h"}, "[16]": {"target": "T1, Protein cereblon/Cyclin-dependent kinase 9", "experiment": "Reversible PROTAC activity at CRBN/CDK9 in human MV4-11 cells assessed as CDK9 degradation at 250 nM incubated for 6 hrs followed by drug wash-out for 12 hrs by western blot analysis", "type": "cell-based"}, "MV4-11 [17]": {"tested_on": "MV4-11", "experiment": "Induction of apoptosis in human MV4-11 cells assessed as total apoptotic cells at 1000 nM after 6 hrs by AnnexinV-FITC/propidium iodide staining based flow cytometry (reference value: 9.75 %)", "type": "functional"}, "[18]": {"target": "T1, Protein cereblon/Cyclin-dependent kinase 9", "experiment": "Protac activity at CRBN/CDK9 in human MV4-11 cells assessed as induction of CDK9 degradation incubated for 6 hrs by Western blot assay", "type": "cell-based"}, "MV4-11 [19]": {"tested_on": "MV4-11", "experiment": "Induction of apoptosis in human MV4-11 cells assessed as early apoptotic cells at 1 nM after 6 hrs by AnnexinV-FITC/propidium iodide staining based flow cytometry (reference value: 5.36 %)", "type": "functional"}, "[20]": {"target": "T1, Protein cereblon/Cyclin-dependent kinase 9", "experiment": "Protac activity at CRBN/CDK9 in human MV4-11 cells assessed as induction of CDK9 degradation by measuring downregulation of CDK9 expression level at 250 nM by western blot analysis", "type": "cell-based", "conditions": "time 1-12 hrs, TDE = time-dependent effect"}, "MV4-11 [21]": {"tested_on": "MV4-11", "experiment": "Induction of apoptosis in human MV4-11 cells assessed as early apoptotic cells at 30 nM after 6 hrs by AnnexinV-FITC/propidium iodide staining based flow cytometry (reference value: 5.36 %)", "type": "functional"}, "[22]": {"target": "T1, Protein cereblon/Cyclin-dependent kinase 9", "experiment": "Protac activity at CRBN/CDK9 in human MOLM-13 cells assessed as CDK9 degradation rate at 500 nM incubated for 6 hrs by Western blot assay relative to control", "type": "cell-based"}, "MV4-11 [23]": {"tested_on": "MV4-11", "experiment": "Induction of apoptosis in human MV4-11 cells assessed as late apoptotic cells at 100 nM after 6 hrs by AnnexinV-FITC/propidium iodide staining based flow cytometry (reference value: 4.29%)", "type": "functional"}, "[24]": {"target": "T1, Protein cereblon/Cyclin-dependent kinase 9", "experiment": "Protac activity at CRBN/CDK9 in human MV4-11 cells assessed as induction of CDK9 degradation by measuring downregulation of CDK9 expression level at 250 nM measured after 1 hr by western blot analysis", "type": "cell-based"}, "MV4-11 [25]": {"tested_on": "MV4-11", "experiment": "Induction of apoptosis in human MV4-11 cells assessed as total apoptotic cells at 250 nM after 6 hrs by AnnexinV-FITC/propidium iodide staining based flow cytometry (reference value: 9.75 %)", "type": "functional"}}, "note": "The source made the active and inactive calls. No cut-off for these calls is given here.", "data": [{"smiles": "COc1cc(F)ccc1-c1ncnc(Nc2cccc(CS(C)(=O)=NC(=O)CCCCCCCC(=O)NCCNc3cccc4c3C(=O)N(C3CCC(=O)NC3=O)C4=O)c2)n1", "note": "(stereo unspecified)", "values": [{"measurement": "Activity", "setting": "MV4-11 [1]", "result": 54.4, "unit": "%"}, {"measurement": "viability at 0.25 µM", "setting": "MV4-11 [2]", "result": 40.1, "unit": "%"}, {"measurement": "Activity", "setting": "[3]", "result": "Dose-Dependent Effect"}, {"measurement": "IC50", "setting": "MCF7", "result": 3120, "unit": "nM"}, {"measurement": "Activity", "setting": "[4]", "result": "Dose-Dependent Effect"}, {"measurement": "Activity", "setting": "[5]", "result": "inactive"}, {"measurement": "Activity", "setting": "[6]", "result": "Tde"}, {"measurement": "Activity", "setting": "[7]", "result": 100, "unit": "%"}, {"measurement": "viability at 0.5 µM", "setting": "MV4-11 [8]", "result": 31.3, "unit": "%"}, {"measurement": "Activity", "setting": "MV4-11 [9]", "result": 0.4, "unit": "%"}, {"measurement": "viability at 0.1 µM", "setting": "MV4-11 [10]", "result": 72.7, "unit": "%"}, {"measurement": "Activity", "setting": "[11]", "result": "inactive"}, {"measurement": "Activity", "setting": "MV4-11 [12]", "result": 13.7, "unit": "%"}, {"measurement": "viability at 0.03 µM", "setting": "MV4-11 [13]", "result": 77.6, "unit": "%"}, {"measurement": "Activity", "setting": "[14]", "result": "inactive"}, {"measurement": "IC50", "setting": "MV4-11 [15]", "result": 25, "unit": "nM"}, {"measurement": "Activity", "setting": "[16]", "result": "Active"}, {"measurement": "Activity", "setting": "MV4-11 [17]", "result": 80.4, "unit": "%"}, {"measurement": "DC50", "setting": "[18]", "result": 7.62, "unit": "nM"}, {"measurement": "Activity", "setting": "MV4-11 [19]", "result": 6.13, "unit": "%"}, {"measurement": "Activity", "setting": "[20]", "result": "Tde"}, {"measurement": "Activity", "setting": "MV4-11 [21]", "result": 7.46, "unit": "%"}, {"measurement": "Activity", "setting": "[22]", "result": 100, "unit": "%"}, {"measurement": "Activity", "setting": "MV4-11 [23]", "result": 15.3, "unit": "%"}, {"measurement": "Activity", "setting": "[24]", "result": "Active"}, {"measurement": "Activity", "setting": "MV4-11 [25]", "result": 59.4, "unit": "%"}]}]}
